Patent US4439444A, “Amidobenzamides, their salts and pharmaceutical compositions containing them” (Sanofi, priority 1981, dated 1984)
Entries after “also recorded” stand apart in the source; their conditions may differ. Like-named read-outs stand apart in the source and are kept apart here.

Tests used:
[1] = target: T1, gastric histamine H2 receptors (Rattus norvegicus, UniProt P25102); assay: antisecretory activity: antagonism of histamine-induced gastric acid hypersecretion in rat (Ghosh and Schild); assay type: in vivo; settings: for Relative potency (cimetidine = 1): gastric H2, from ID50, rat i.v.; for ED50: rat, read-out: ID50 (dose which inhibits by 50% the gastric hypersecretion induced by histamine); for antisecretory (gastric H2 blocking) activity in words: comparison from Table I
T1 construct: the gastric secretion is measured by perfusion of a physiological solution at a constant speed in the stomach of the animal; from tissue; host or cells: stomach of the living rat (in vivo, intravenous histamine infusion)
Method: According to this test, a gastric acid hypersecretion is induced by intravenous infusion of a sub-maximal dose of histamine equivalent to 15 mcmol/kg/hour and the gastric secretion is measured by perfusion of a physiological solution at a constant speed in the stomach of the animal.
Such a ID50 represents the index of the gastric H2 blocking action.

[2] = target: T2, cardiac histamine H2 receptors (Cavia porcellus, UniProt P47747); assay: inhibition of the increase in frequency induced by histamine on the isolated right atrium of the guinea pig; assay type: cell-based; settings: for Relative potency (cimetidine = 1): cardiac H2, from IC50, guinea pig right atrium
T2 construct: induced by histamine on the isolated right atrium of the guinea pig; from tissue; host or cells: isolated right atrium of the guinea pig
Description: Such an IC50 represents the index of cardiac H2 blocking action.

[3] = tested on: immature Sprague Dawley rats, castrated, testosterone-stimulated genitals and levator ani muscle; settings: rat, in vivo, ip, 200 mg/kg/day
Method: Testosterone was administered by sub-cutaneous route, suspended in a vehicle for steroids, both at the dose of 0.2 mg/animal/day, and 0.4 mg/animal/day. […] As a control it was used a lot of animals treated with the vehicles only. The treatment lasted 8 days. The animals were killed 24 hours after the last injection, the ventral prostrate, the seminal vescicles and the levator ani were immediately drawn and weighed.

cardiac H2 receptors = settings: Clinica Terapeutica, 1981, 96, 81-91; cited from earlier work
gastric acid secretion = settings: rat; as oxalate; cited from earlier work
[4] = intravenous route, single administration, histamine infusion 15 mcmol/kg/hour

T1 sequence (P25102 whole entry, the tested form may be a part): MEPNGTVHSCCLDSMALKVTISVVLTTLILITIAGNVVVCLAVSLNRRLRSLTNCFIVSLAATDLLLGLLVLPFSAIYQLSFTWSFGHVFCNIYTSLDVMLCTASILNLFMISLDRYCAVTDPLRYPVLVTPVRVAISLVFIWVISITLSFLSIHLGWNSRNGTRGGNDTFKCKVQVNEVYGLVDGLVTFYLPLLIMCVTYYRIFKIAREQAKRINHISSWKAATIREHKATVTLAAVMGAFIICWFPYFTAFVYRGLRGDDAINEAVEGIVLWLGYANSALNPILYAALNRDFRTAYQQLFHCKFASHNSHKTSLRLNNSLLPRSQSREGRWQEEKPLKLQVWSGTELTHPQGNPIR
T2 sequence (P47747 whole entry): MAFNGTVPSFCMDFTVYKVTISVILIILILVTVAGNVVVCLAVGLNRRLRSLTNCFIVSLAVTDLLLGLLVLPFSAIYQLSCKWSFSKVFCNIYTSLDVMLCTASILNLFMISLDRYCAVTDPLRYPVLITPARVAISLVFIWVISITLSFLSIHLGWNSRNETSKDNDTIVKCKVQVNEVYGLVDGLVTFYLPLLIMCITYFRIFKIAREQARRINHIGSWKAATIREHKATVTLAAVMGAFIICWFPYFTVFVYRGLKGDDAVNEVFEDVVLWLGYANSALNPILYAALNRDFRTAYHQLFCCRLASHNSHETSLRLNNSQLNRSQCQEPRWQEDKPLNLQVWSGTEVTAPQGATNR

SMILES	Relative potency (cimetidine = 1) [1]	ED50 [1, 4] [µmol/kg]	Relative potency (cimetidine = 1) [2]	other results
CN(C)Cc1ccc(CSCCNC(=O)c2cccc(NS(C)(=O)=O)c2)o1 [CM 57822, 3-methanesulfonamido-N-[2-(5-dimethylaminomethylfuran-2-ylmethylthio)ethyl]benzamide]	0.97	0.98	0.2	
CN(C)Cc1ccc(CSCCNC(=O)c2cccc(NS(=O)(=O)c3ccccc3)c2)o1 [CM 57888, 3-benzenesulfonamido-N-[2-(5-dimethylaminomethylfuran-2-ylmethylthio)ethyl]benzamide]				effect when testosterone was administered at the dose of 0.4 mg/animal/day [3]: did not exhibit any effect
CN/C(=N/CCSCc1nc[nH]c1C)NC#N [Cimetidine, 2-cyano-1-methyl-3-[2[(5-methylimidazol-4-yl)methylthio]ethyl]guanidine, reference compound]				ED50 ([1]; iv): 0.95 µmol/kg; side effects in the treatment of the ulcerous disease (cardiac H2 receptors): bradycardia and of the asystolia observed as side effects
CN(C)Cc1ccc(CSCCNC(=O)c2ccc(S(N)(=O)=O)cc2)o1 [Compound A, N-[2-(5-dimethylaminomethylfuran-2-ylmethylthio)ethyl]-4-sulfamoyl benzamide, reference compound]	0.42	2.26	1.3	cardiac H2 blocking activity in words (compared with cimetidine) ([2]; comparison from Table II): more active
CN(C)Cc1ccc(CSCCNC(=O)c2ccc(S(N)(=O)=O)cc2)o1 [N-[2-(5-dimethylaminomethylfuran-2-ylmethylthio)ethyl]-4-sulfamoylbenzamide]				ED50 in the gastric acid secretion inhibiting activity (gastric acid secretion): 2.54 mg/kg
CNC(=C[N+](=O)[O-])NCCSCc1ccc(CN(C)C)o1 [Ranitidine, N-[2[[5-[(dimethylamino)methyl]furfuryl]thio]ethyl]-N'-methyl-2-nitro-1,1-ethenediamine, reference compound]	3.80		5	ED50 ([1]; iv): 0.25 µmol/kg
CN(C)Cc1ccc(CSCCNC(=O)c2cccc(NC(=O)c3cccnc3)c2)o1.O=C(O)C(=O)O.O=C(O)C(=O)O [SR 57927 A, 3-(3-pyridinecarboxamido)-N-[2-(5-dimethylaminomethylfuran-2-ylmethylthio)ethyl]benzamide dioxalate]	0.82			ED50 ([1]; iv): 1.15 µmol/kg

Continued, in another order:

Relative potency (cimetidine = 1) [1]	ED50 [1, 4] [µmol/kg]	Relative potency (cimetidine = 1) [2]	SMILES	other results
2.88	0.33	0.08	CN(C)Cc1ccc(CSCCNC(=O)c2cccc(NC(=O)c3ccc[n+]([O-])c3)c2)o1 [SR 57912, 3-[(3-pyridine 1-oxyde)carboxamido]-N-[2-(5-dimethylaminomethylfuran-2-ylmethylthio)ethyl]benzamide]	antisecretory (gastric H2 blocking) activity in words [1]: very powerful; also recorded: very close to that of ranitidine
0.82	1.15	0.06	CN(C)Cc1ccc(CSCCNC(=O)c2cccc(NC(=O)c3cccs3)c2)o1 [SR 57922, 3-(2-thienylcarboxamido)-N-[2-(5-dimethylaminomethylfuran-2-ylmethylthio)ethyl]benzamide]	
0.52	1.82		CN(C)Cc1ccc(CSCCNC(=O)c2cccc(NS(=O)(=O)c3cccnc3)c2)o1 [SR 57933, 3-(3-pyridinesulfonamido)-N-[2-(5-dimethylaminomethylfuran-2-ylmethylthio)ethyl]benzamide]	
1.02	0.93		CN(C)Cc1ccc(CSCCNC(=O)c2cccc(NS(=O)(=O)c3cccs3)c2)o1 [SR 57975, 3-(2-thiophenesulfonamido)-N-[2-(5-dimethylaminomethylfuran-2-ylmethylthio)ethyl]benzamide]	
1.94	0.49		CCCCS(=O)(=O)Nc1cccc(C(=O)NCCSCc2ccc(CN(C)C)o2)c1 [SR 57981 A, 3-butanesulfonamido-N-[2-(5-dimethylaminomethylfuran-2-ylmethylthio)ethyl]benzamide]	antisecretory (gastric H2 blocking) activity in words [1]: very powerful
